Reference: paper PMC4891693, “Discovery of prenylated flavonoids with dual activity against influenza virus and Streptococcus pneumoniae” (Scientific Reports, 2016)
Converted amounts (≈) assume the structure as drawn. Like-named read-outs stand apart in the source and are kept apart here.

Tests used:
[1] = tested on: NA of S. pneumoniae DSM20566 (precipitated bacterial proteins); assay: Hemagglutination (HA)-based NA inhibition assay, bacterial; assay type: biochemical, Streptococcus pneumoniae; details: pure compounds; total protein of DSM20566; human erythrocytes; highest tested 100 μM
Description: Inhibition of pneumococcal NAs circumvents hemagglutination.

[2] = tested on: S. pneumoniae DSM20566 biofilm; assay: Scanning electron microscopy of pneumococcal biofilm on glass slides; assay type: cell-based, Streptococcus pneumoniae; details: 10 μM; treatment from 3 h after inoculation; 7 days
[3] = tested on: IAV Jena/8178/2009 (8178/09); assay: microbe, parasite or virus in culture; assay type: cell-based, Influenza A virus; details: Influenza A virus, MDCK, 48 h; read-out: IC50 of CPE IAV 8178/09
[4] = biological target: influenza virus A/WSN/33 NA (Influenza A virus, UniProt P03470); assay: biochemical
influenza virus A/WSN/33 NA, sequence (P03470 whole entry, looked up): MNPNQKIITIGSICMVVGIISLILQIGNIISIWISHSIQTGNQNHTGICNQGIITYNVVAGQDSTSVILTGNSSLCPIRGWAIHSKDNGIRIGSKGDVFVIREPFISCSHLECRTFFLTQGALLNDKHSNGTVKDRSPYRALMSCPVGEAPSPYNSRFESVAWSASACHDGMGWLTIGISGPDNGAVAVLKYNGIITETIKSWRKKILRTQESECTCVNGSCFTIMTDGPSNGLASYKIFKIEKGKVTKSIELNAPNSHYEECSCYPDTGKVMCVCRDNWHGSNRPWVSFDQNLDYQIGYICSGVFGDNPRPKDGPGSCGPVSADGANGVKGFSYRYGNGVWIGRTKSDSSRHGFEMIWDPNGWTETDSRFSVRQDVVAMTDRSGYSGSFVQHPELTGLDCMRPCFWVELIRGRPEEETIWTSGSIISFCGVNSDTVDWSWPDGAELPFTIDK

[5] = tested on: influenza virus A/WSN/33; assay: microbe, parasite or virus in culture; assay type: cell-based; details: WSN, MDCK, read-out: IC50 of CPE assay (A/WSN/33)
[6] = tested on: human erythrocytes
[7] = tested on: human erythrocytes; remark: listed apart in the source
[8] = in vitro; details: dog
[9] = in vitro; details: human
[10] = tested on: human erythrocytes; assay: Interference with hemagglutination in the viral HA assay
[11] = pure compounds, human erythrocytes, 2 h at 4 °C

Structure (SMILES): CCC(CC)O[C@@H]1C=C(C(=O)O)C[C@H](N)[C@H]1NC(C)=O [Oseltamivir carboxylate GS4071, reference compound]
- MIC in HA assay against S. pneumoniae DSM20566 [1]: 2.08 ± 1.25 µM (≈ 0.591 µg/mL)
- biofilm formation by scanning electron microscopy [2]: did not impair biofilm formation

Structure (SMILES): COc1cc([C@H]2Oc3cc([C@H]4Oc5cc(O)cc(O)c5C(=O)[C@@H]4O)ccc3O[C@@H]2CO)ccc1O (racemic) [Compound 17, (±)-silybin]
- IC50 [3]: > 100 µM
- IC50 [4]: 9.18 ± 1.5 µM
- IC50 [5]: > 100 µM
- sample concentrations provoking induction of erythrocyte lysis in viral HA assay [6]: no
- sample concentrations provoking induction of erythrocyte lysis in bacterial HA assay [7]: no
- CC50 at 72 h [8]: > 100 µM
- CC50 at 72 h [9]: > 100 µM
- sample concentrations provoking prevention of virus-induced hemagglutination in viral HA assay [10, 11]: no

Structure (SMILES): O=c1cc(-c2ccc(O)c(O)c2O)oc2cc(O)cc(O)c12 [Compound 14, 2',3',4',5,7-pentahydroxyflavone]
- MIC in HA assay against S. pneumoniae DSM20566 [1]: 72.6 ± 37.5 µM (≈ 21.9 µg/mL)
- IC50 [3]: > 100 µM
- IC50 [4]: > 100 µM
- IC50 [5]: > 100 µM
- sample concentrations provoking induction of erythrocyte lysis in viral HA assay [6]: no
- sample concentrations provoking induction of erythrocyte lysis in bacterial HA assay [7]: no
- CC50 at 72 h [8]: > 100 µM
- CC50 at 72 h [9]: > 100 µM
- sample concentrations provoking prevention of virus-induced hemagglutination in viral HA assay [10]: no

Structure (SMILES): O=c1c(O)c(-c2ccc(O)cc2O)oc2cc(O)cc(O)c12 [Compound 16, morin]
- MIC in HA assay against S. pneumoniae DSM20566 [1]: 23.0 ± 11.8 µM (≈ 6.95 µg/mL)
- IC50 [3]: 70.1 ± 9.83 µM
- IC50 [4]: 62 ± 8.03 µM
- IC50 [5]: > 100 µM
- sample concentrations provoking induction of erythrocyte lysis in viral HA assay [6]: no
- sample concentrations provoking induction of erythrocyte lysis in bacterial HA assay [7]: no
- CC50 at 72 h [8]: > 100 µM
- CC50 at 72 h [9]: > 100 µM
- sample concentrations provoking prevention of virus-induced hemagglutination in viral HA assay [10]: no

Structure (SMILES): COc1c(O)cc2c(c1O)C(=O)CC(c1ccccc1)O2 (stereo not shown) [Compound 8, 2,3-dihydro-5,7-dihydroxy-6-methoxy-2-phenyl-4H-1-benzopyran-4-one]
- IC50 [3]: > 100 µM
- IC50 [4]: > 100 µM
- IC50 [5]: > 100 µM
- sample concentrations provoking induction of erythrocyte lysis in viral HA assay [6]: no
- sample concentrations provoking induction of erythrocyte lysis in bacterial HA assay [7]: no
- CC50 at 72 h [8]: > 100 µM
- CC50 at 72 h [9]: > 100 µM
- sample concentrations provoking prevention of virus-induced hemagglutination in viral HA assay [10, 11]: no

Structure (SMILES): O=C1CC(c2ccc(O)cc2O)Oc2cc(O)cc(O)c21 (stereo not shown) [Compound 12, 2',4',5,7-tetrahydroxyflavanone]
- MIC in HA assay against S. pneumoniae DSM20566 [1]: 72.6 ± 37.5 µM (≈ 20.9 µg/mL)
- IC50 [3]: > 100 µM
- IC50 [4]: 77.7 ± 5.56 µM
- IC50 [5]: 81.3 ± 10.4 µM
- sample concentrations provoking induction of erythrocyte lysis in viral HA assay [6]: no
- sample concentrations provoking induction of erythrocyte lysis in bacterial HA assay [7]: no
- CC50 at 72 h [8]: > 100 µM
- CC50 at 72 h [9]: > 100 µM
- sample concentrations provoking prevention of virus-induced hemagglutination in viral HA assay [10]: no

Structure (SMILES): COc1ccc(C2CC(=O)c3c(O)cc(O)cc3O2)cc1O (racemic) [Compound 10, (±)-hesperetin]
- IC50 [3]: > 100 µM
- IC50 [4]: > 100 µM
- IC50 [5]: > 100 µM
- sample concentrations provoking induction of erythrocyte lysis in viral HA assay [6]: no
- sample concentrations provoking induction of erythrocyte lysis in bacterial HA assay [7]: no
- CC50 [8]: > 100 µM
- CC50 [9]: > 100 µM
- sample concentrations provoking prevention of virus-induced hemagglutination in viral HA assay [10]: no

Structure (SMILES): CC(C)=CCc1cc(C2CC(=O)c3ccc(O)cc3O2)ccc1O (racemic) [Compound 18, (±)-abyssinone II]
- IC50 [3]: 25.9 ± 3.67 µM
- IC50 [4]: > 100 µM
- IC50 [5]: 11.4 ± 3 µM
- sample concentrations provoking induction of erythrocyte lysis in viral HA assay [6]: no
- sample concentrations provoking induction of erythrocyte lysis in bacterial HA assay [7]: no
- CC50 at 72 h [8]: 59.2 ± 15 µM
- CC50 at 72 h [9]: > 100 µM
- sample concentrations provoking prevention of virus-induced hemagglutination in viral HA assay [10]: no
